Values after ≈ are worked out from the molar mass of the structure shown. Read-outs that look alike come from different tables or passages of the source. Non-standard residues stand in square brackets, D forms with d. Residues, ends and D or L forms follow the SMILES beside them. *: point of attachment. Dmt = Cc1cc(O)cc(C)c1C[C@H](N)C(=O)O; Boc = CC(C)(C)OC(=O)*
How the values were obtained:
Format in all cases: physicochemical
[1] = Approximate solubility assessment (solvent addition technique)
Procedure: Approximate Solubility Assessment of Boc-D-Arg-DMT-Lys(Boc)-Phe-NH2
The solubility screen was carried out as follows: • Approximately 20 mg of Boc-D-Arg-DMT-Lys(Boc)-Phe-NH2 was weighed out into each vial. • Each solvent/solvent mixture was added to the appropriate vial in 5 volume aliquots (100 μL). • In between additions, the sample was stirred at 50° C.
The solubility assessment was estimated by a solvent addition technique, heating at 50° C. between aliquots (see Table 9).

[2] = Gravimetric vapour sorption (GVS), hygroscopicity
Procedure: Gravimetric Vapour Sorption (GVS)
Approximately 15 mg of sample was placed into a mesh vapour sorption balance pan and loaded into an IGASorp Moisture Sorption Analyser balance by Hiden Analytical. The sample was subjected to a ramping profile from 40-90% relative humidity (RH) at 10% increments, maintaining the sample at each step until a stable weight had been achieved (98% step completion). After completion of the sorption cycle, the sample was dried using the same procedure to 0% RH, then subjected to a second ramping profile from 0-90% relative humidity. After completion of the second sorption cycle, the sample was dried using the same procedure to 0% RH, and finally taken back to the starting point of 40% RH. The weight change during the sorption/desorption cycles were plotted, allowing for the hygroscopic nature of the sample to be determined.

[3] = Approximate solubility assessment (solvent addition technique); conditions: dichloromethane, 35° C. for dichloromethane, read-out: Approximate Solubility (50° C.)

In the case of Cc1cc(O)cc(C)c1C[C@H](NC(=O)[C@@H](CCCNC(=N)N)NC(=O)OC(C)(C)C)C(=O)N[C@@H](CCCCNC(=O)OC(C)(C)C)C(=O)N[C@@H](Cc1ccccc1)C(N)=O [Boc-D-Arg-DMT-Lys(Boc)-Phe-NH2] (Boc-[dR][Dmt]K(Boc)F-NH2), the solubility ([1]; 2-butanol, solvent 2-Butanol, 50° C., read-out: Approximate Solubility (50° C.)) is reported as 17 mg/mL (≈ 20.2 mM), the solubility ([1]; 2-propanol, solvent 2-Propanol, 50° C., read-out: Approximate Solubility (50° C.)) is reported as 14 mg/mL (≈ 16.7 mM) and the solubility ([1]; 2-propanol:water (50:50% v/v), solvent 2-propanol:water (50:50% v/v), 50° C., read-out: Approximate Solubility (50° C.)) is reported as roughly 100 mg/mL (≈ 119 mM). It also gave a solubility ([1]; DMSO:acetone (50:50% v/v), solvent DMSO:acetone (50:50% v/v), 50° C., read-out: Approximate Solubility (50° C.)) of no less than 200 mg/mL, a solubility ([1]; DMSO:water (50:50% v/v), solvent DMSO:water (50:50% v/v), 50° C., read-out: Approximate Solubility (50° C.)) of 24 mg/mL (≈ 28.6 mM) and a solubility ([1]; acetone, solvent Acetone, 50° C., read-out: Approximate Solubility (50° C.)) of less than 10 mg/mL. It also gave a solubility ([1]; acetone:water (50:50% v/v), solvent Acetone:water (50:50% v/v), 50° C., read-out: Approximate Solubility (50° C.)) of 58 mg/mL (≈ 69 mM), a solubility ([1]; acetonitrile, solvent Acetonitrile, 50° C., read-out: Approximate Solubility (50° C.)) of less than 10 mg/mL and a solubility ([1]; acetonitrile:water (50:50% v/v), solvent Acetonitrile:water (50:50% v/v), 50° C., read-out: Approximate Solubility (50° C.)) of no less than 200 mg/mL. For the same compound, the solubility ([1]; all other solvent systems: acetone, dichloromethane, 2-butanol, 2-propanol, methyl ethyl ketone, toluene, THF, ethyl acetate, acetonitrile, read-out: Poor solubility) was no more than 17 mg/mL, the solubility ([1]; ethanol, solvent Ethanol, 50° C., read-out: Approximate Solubility (50° C.)) was roughly 140 mg/mL (≈ 167 mM) and the solubility ([1]; ethanol:water (50:50% v/v), solvent Ethanol:water (50:50% v/v), 50° C., read-out: Approximate Solubility (50° C.)) was roughly 100 mg/mL (≈ 119 mM). For the same compound, the solubility ([1]; ethyl acetate, solvent Ethyl acetate, 50° C., read-out: Approximate Solubility (50° C.)) was less than 10 mg/mL, the solubility ([1]; in acetone:water (50:50 v/v), methanol:water (50:50 v/v) and DMSO:water (50:50 v/v), 50° C.) was 58 to 24 mg/mL and the solubility ([1]; methanol, solvent Methanol, 50° C., read-out: Approximate Solubility (50° C.)) was no less than 200 mg/mL. It also gave a solubility ([1]; methanol:water (50:50% v/v), solvent Methanol:water (50:50% v/v), 50° C., read-out: Approximate Solubility (50° C.)) of 45 mg/mL (≈ 53.6 mM), a solubility ([1]; methyl ethyl ketone, solvent Methyl ethyl ketone, 50° C., read-out: Approximate Solubility (50° C.)) of less than 10 mg/mL and a solubility ([1]; tetrahydrofuran, solvent Tetrahydrofuran, 50° C., read-out: Approximate Solubility (50° C.)) of less than 10 mg/mL. The solubility ([1]; toluene, solvent Toluene, 50° C., read-out: Approximate Solubility (50° C.)) was less than 10 mg/mL, the solubility ([1]; trifluoroethanol, solvent Trifluoroethanol, 50° C., read-out: Approximate Solubility (50° C.)) was no less than 200 mg/mL and the “Mass increase by GVS” value ([2]; between 40-90% RH, received, predominantly amorphous material) was “ca. 10%”. For the same compound, the Hygroscopicity after crystallization ([2]; crystallized material compared with the amorphous input) was “did not show an improvement in terms of hygroscopicity”, the “Hygroscopicity by GVS analysis” value ([2]; received, predominantly amorphous material) was “highly hygroscopic” and the solubility [3] was less than 10 mg/mL.
